The values that follow are results of earlier work, collected in patent US9267111B2, “Methods of treating female subjects in need of in vitro fertilization” (The General Hospital Corporation, priority 2004, dated 2016).

Structures are written as SMILES.

For the data set, the system named is germ line stem cells and spermatogonia in irradiated testicular tissue. The following applies: versus untreated tissues.

As for `CCCCCCCCCCCCC/C=C/[C@@H](O)[C@@H](N)COP(=O)(O)O` [S1P, Sphingosine-1-phosphate], the “numbers of primary spermatocytes and spermatogonia” value was “higher than untreated tissues”.
